Holding throughout (format): in vivo, mouse
Series [1] deals with C57BL/6 wild type mice. The series can be described thus: Hindlimb irradiation (25 Gy), skin reaction / tissue necrosis grading and histology. Conditions: for skin reaction / tissue damage of irradiated hindlimb: 10 μM in 750 μl PBS local-regional. As to the method: FIG. 16. CD47 suppression using an antisense morpholino minimizes tissue damage from radiation injury. Age and sex matched C57BL16 wild type mice underwent a one-time treatment of the right hindlimb with either a murine specific CD47 morpholino oligonucleotide (10 μM in 750 μl PBS) or 750 μl of PBS injected local-regionally to the muscle and soft tissues. […] At the end of 8 weeks, there was a considerable amount of alopecia, dry desquamation and early signs of fibrotic contractures within the irradiated hind limbs of mice receiving only PBS. […] The tissue necrosis grading scores for 8 animals are presented as mean±SD (FIG. 16B) and show a similar trend throughout the 8-week observation period.
Skin reaction: Skin reaction following hind limb irradiation was quantified every week following treatment for 8 weeks using a previously described grading system (Flanders et al., Am J Pathol 163:2247-2257, 2003). The grading system consisted of 5 categories: normal, hair loss, erythema, dry desquamation and moist desquamation/ulceration.
Irradiation of mice: Age and sex matched wild type mice underwent local irradiation to the right hindlimb as described in Example 1. Forty-eight hours prior to irradiation, animals received the CD47 morpholino (SEQ ID NO: 4), a control morpholino (SEQ ID NO: 5) (both at 10 μM in […] PBS via intramuscular injection), vehicle, or no treatment to the hind limb. Under 1% isoflurane inhalation anesthesia, the animals were placed in customized Lucite jigs that allow for immobilization and selective irradiation of the right hindlimb. A single radiation dose of 25 Gy was delivered by a Therapax® DXT300 X-ray irradiator (Pantak, Inc., East Haven, Conn.) using 2.0-mm A1 filtration (300 kVp) at a dose rate of 2.53 Gy/min. Care was taken to avoid irradiation of other body parts by using lead shields specifically designed as a part of the jigs. After irradiation, the animals were placed in cages as indicated above and observed weekly. Skin reaction after hind limb irradiation was quantified every week after treatment for 8 weeks using a previously described grading system (Flanders et al., Am J. Pathol 163:2247-2257, 2003). Briefly, tissue necrosis grading system consists of 5 categories: normal, hair loss, erythema, dry desquamation, and moist desquamation/ulceration.
Age and sex matched C57BL16 wild type mice underwent a one-time treatment of the right hindlimb with the CD47 antisense morpholino oligonucleotide (10 μM in 750 μl PBS), a mismatched control morpholino, or vehicle (PBS) injected local-regionally to the muscle and soft tissues.

Series [2] deals with C57BL/6 wild type mice. Briefly: Tissue apoptosis (TUNEL) in irradiated hindlimb muscle and bone marrow. Conditions: morpholino 48 hours before 25 Gy, 24 hours post-radiation. How it is done:
FIG. 17. Therapeutic suppression of CD47 prevents radiation-induced apoptosis in muscle and bone marrow. The presence of apoptosis was detected by the TUNEL method as brown nuclear staining. Non-irradiated control hindlimbs (upper panels) and hindlimbs irradiated for a total of 25 Gy all from age and sex matched C57BL/6 wild type mice were prepared for paraffin-embedded tissue sections 24 hours post-radiation and were examined for the presence of apoptotic nuclei. Mice hindlimbs injected with the CD47 morpholino (bottom panels) 48 hours prior to radiation were also prepared in the same manner 24 hours post-radiation. Apoptosis is inferred by intranuclear staining of muscle and bone marrow cells. Images were acquired using a 20× objective.
Tissue apoptosis: The ApopTag in situ detection kit (Chemicon, Millipore, Mass.) was employed following the manufacturer's recommendations In brief, sections undergo deparaffinization, rehydration and washing, followed by treatment with 20 μg/ml of proteinase K for 15 minutes at room temperature and repeat washing. Endogenous peroxidase activity was quenched with 3% H2O2 in PBS for 5 minutes. The 3′-hydroxy DNA strand breaks were enzymatically labeled with digoxygenin nucleotide via TdT and incubated for 1 hour at 37° C., and the reaction terminated with a stop buffer. […]

Series [3] concerns C57BL/6 mice. Briefly: Laser Doppler hind limb blood flow after NO challenge, 8 weeks post-radiation. Conditions: intramuscular 10 μM 48 hours before 25 Gy, 8 weeks post-injury. As to the method: FIG. 18. Targeting CD47 Protects Composite Tissue From Radiation-Induced Vascular Damage. Age matched male C57BL/6 mice received 25 Gy to both hind limbs. Forty-eight hours prior to irradiation the right hind limb was treated by direct intra-muscular injection with the CD47 morpholino (750 μl at 10 μM concentration). The opposite (control) limb received nothing. Eight weeks post-radiation hind limb blood flow changes to a nitric oxide (NO) challenge (DEA/NO 100 nmol/g body weight via rectal instillation) was assessed via Laser Doppler imaging (FIG. 18A). In other experiments, the opposite (control) limb received injection of either missense oligonucleotide or sterile PBS with similar results (not shown). Laser Doppler was performed under 1.5% isoflurane inhalation anesthesia with animal core temperature held constant at 36.5° C. […]
Laser Doppler analysis: Hind limb flow was measured using laser Doppler imaging (MoorLD1-2λ, Moor Instruments, Devon, England). […] Core temperature was monitored by rectal probe and was further controlled with a heat lamp. […] After equilibration to the experimental set-up baseline, hind limb blood flow was measured. […] Results are expressed as the change percent control from baseline of the ROI.
Laser Doppler Analysis: Hind limb blood flow was measured using laser Doppler imaging as described above. […]

The text below walks through data of patent US8951527B2, “Radioprotectants targeting thrombospondin-1 and CD47” (The United States of America, as represented by the …, priority 2008, dated 2015).

In the case of “CGTCACAGGCAGGACCCACTGCCCA (all phosphorodiamidate morpholino (PMO)) [CD47 morpholino, CD47 targeting morpholino oligonucleotide]”, in series [1] (48 hours before 25 Gy, 8 weeks), the “skin reaction / tissue damage of irradiated hindlimb” value was “little to no alopecia, ulceration, or desquamation” and the “hindlimb contracture due to fibrosis” value was “minimal contracture due to fibrosis”. In addition, in series [1] (48 hours before 25 Gy, 8 weeks, listed as CD47 targeting morpholino), the “skin reaction / tissue damage of irradiated hindlimb” value was “minimal to no alopecia, ulceration, and desquamation”. Further, in series [1] (25 Gy, results not shown), the “H&E of treated hindlimb skeletal muscle” value was “muscle cell survival and hypertrophy”. In series [2], the “apoptosis (TUNEL) in bone marrow” value is “tissue protection extended to the bone marrow compartment” and the “apoptosis (TUNEL) in skeletal muscle” value was “minimum cell death (apoptosis)”. Besides, in series [3], the “vascular perfusion in response to DEA/NO challenge (laser Doppler)” value is on record as “enhanced vascular perfusion”.
